Laboratory results as given in patent US11214803B2, “Modulators of YAP1 expression” (Ionis Pharmaceuticals, Inc., priority 2019, dated 2022).
Marks after values point to notes of the source that are not given here. Strand notation (5' to 3'): a small letter for the sugar, then the base; units joined by * are phosphorothioate-linked, units joined directly phosphodiester-linked; [ ] holds rarer units or linkages, { } end groups; capitals alone tell only the bases. k = constrained ethyl (cEt); [5mC] = 5-methylcytosine; d = 2'-deoxy (DNA)

System: Yap1 mRNA
Experiment: Antisense inhibition of human Yap1 in A-431 cells by cEt gapmers, single dose (Example 2, RTS4814)
Type: cell-based
Settings: A-431 cells, 5,000 cells per well, free uptake, 2,000 nM modified oligonucleotide, approx. 48 hours, RTS4814, normalized to RIBOGREEN; Table 4; asterisk (*) = targets amplicon region of primer probe set
Method in brief: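 Yap1 mRNA levels, by real-time RT-PCR (RTS4814) and corrected for total RNA via RIBOGREEN, are given as percent of untreated cells. Gapmers (16-mer, cEt wings, phosphorothioate, 5-methylC) were delivered without transfection at 2,000 nM to A-431 cells for about 48 hours.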

Row | Substance | YAP1 (% UTC)
1 | 716403 (k[5mC]*k[5mC]*kG*dG*dG*dA*dG*dA*dA*dG*dA*d[5mC]*dA*k[5mC]*kT*kG; antisense) [Compound 716403] | 110
2 | 716388 (kA*kG*kA*dG*dG*dT*dG*dG*dT*d[5mC]*dT*dT*dG*kT*kT*k[5mC]; antisense) [Compound 716388] | 55
3 | 716547 (kG*kG*kT*dA*dT*dG*dA*dA*dT*dT*d[5mC]*dT*dG*kA*kA*kT; antisense) [Compound 716547] | 44

Same assay, conditions: Table 5; A-431 cells, 5,000 cells per well, free uptake, 2,000 nM modified oligonucleotide, approx. 48 hours; RTS4814; normalized to RIBOGREEN; Yap1 mRNA relative to untreated control cells

Row | Substance | YAP1 (% UTC)
4 | 716536 (antisense kA*kA*kG*dT*dA*dG*dA*dT*d[5mC]*dT*dA*dA*dG*kA*kA*kG) [Compound 716536] | 94
5 | 716539 (antisense kA*kA*kT*dA*dG*dT*dG*d[5mC]*dT*dT*dT*dG*dG*kA*kA*kG) [Compound 716539] | 59
6 | 716509 (antisense kT*kA*kT*dA*d[5mC]*d[5mC]*d[5mC]*dA*dA*dT*dT*dT*dT*kG*k[5mC]*kA) [Compound 716509] | 70

Same assay, conditions: Table 6; A-431 cells, 5,000 cells per well, free uptake, 2,000 nM modified oligonucleotide, approx. 48 hours; RTS4814; normalized to RIBOGREEN; Yap1 mRNA relative to untreated control cells

Row | Substance | YAP1 (% UTC)
7 | 716561 (kA*kA*kG*dG*dT*dA*dT*dT*dA*d[5mC]*dA*dT*dA*kA*kG*kA; antisense) [Compound 716561] | 58
8 | 716510 (antisense k[5mC]*kA*kA*d[5mC]*dA*dT*dG*d[5mC]*dT*dA*dT*dG*dT*kA*kA*kT) [Compound 716510] | 122
9 | 716495 (kG*kT*kT*dA*dT*dG*dA*dA*d[5mC]*d[5mC]*d[5mC]*dT*dT*kG*kA*kA; antisense) [Compound 716495] | 58
10 | 716369 (k[5mC]*kG*kG*d[5mC]*dG*dG*d[5mC]*dT*dT*dG*dA*dA*dG*kA*kA*kG; antisense) [Compound 716369] | 94

Same assay, conditions: Table 18; A-431 cells, 5,000 cells per well, free uptake, 2,000 nM modified oligonucleotide, approx. 48 hours; RTS4814; normalized to RIBOGREEN; Yap1 mRNA as percent of untreated control

Row | Substance | YAP1 (% UTC)
11 | 1076452 (kG*kG*kA*d[5mC]*dT*dA*dT*dA*dG*d[5mC]*d[5mC]*d[5mC]*dT*kT*kA*kA; antisense) [Compound 1076452] | 16
12 | 1075236 (antisense kT*kA*kT*dA*dA*dT*dA*d[5mC]*d[5mC]*dA*d[5mC]*dA*dA*kA*kG*kT) [Compound 1075236] | 81
13 | 1074564 (antisense k[5mC]*kT*kG*dA*dA*dT*dT*d[5mC]*d[5mC]*dA*dA*dT*d[5mC]*kG*kA*kG) [Compound 1074564] | 4

Same assay, conditions: Table 19; A-431 cells, 5,000 cells per well, free uptake, 2,000 nM modified oligonucleotide, approx. 48 hours; RTS4814; normalized to RIBOGREEN; Yap1 mRNA as percent of untreated control

Row | Substance | YAP1 (% UTC)
14 | 1075365 (k[5mC]*kA*k[5mC]*dG*dA*dA*dA*dA*dT*dA*dG*dT*dT*k[5mC]*kT*k[5mC]; antisense) [Compound 1075365] | 11 % UTC
15 | 1075141 (antisense kT*kA*kT*dA*d[5mC]*dG*dA*dG*dA*dA*dG*dT*dT*kG*kA*kA) [Compound 1075141] | 54 % UTC
16 | 1075045 (antisense kA*kA*kA*dT*dT*dA*dG*dA*d[5mC]*dT*d[5mC]*d[5mC]*d[5mC]*k[5mC]*k[5mC]*kA) [Compound 1075045] | 18 % UTC
17 | 1074405 (antisense kG*k[5mC]*k[5mC]*dT*dG*dA*dA*dA*dA*d[5mC]*dT*dG*d[5mC]*kA*kA*k[5mC]) [Compound 1074405] | 27 % UTC
18 | 1074437 (kA*k[5mC]*kA*dT*dG*dA*dA*dG*d[5mC]*dA*dT*d[5mC]*dT*kG*kA*k[5mC]; antisense) [Compound 1074437] | 4* % UTC

Same assay, conditions: Table 20; Yap1 mRNA, percent of untreated control; 3-10-3 cEt gapmers targeting SEQ ID NO.: 1 and 2

Row | Substance | YAP1 (% UTC)
19 | 1074342 (antisense k[5mC]*kA*kT*d[5mC]*d[5mC]*d[5mC]*dG*dG*dG*dA*dG*dA*dA*kG*kA*k[5mC]) [Compound 1074342] | 56
20 | 1076198 (k[5mC]*kT*kA*dT*dT*dA*dT*d[5mC]*dA*dA*dG*dG*dG*kA*kA*kT; antisense) [Compound 1076198] | 81

Same assay, conditions: Table 21; Yap1 mRNA, percent of untreated control; 3-10-3 cEt gapmers targeting SEQ ID NO.: 1 and 2

Row | Substance | YAP1 (% UTC)
21 | 1074151 (antisense kG*kG*kG*d[5mC]*d[5mC]*dG*dA*dG*dG*dT*dG*dG*dA*kG*kA*kA) [Compound 1074151] | 81
22 | 1075431 (antisense kT*kA*kA*d[5mC]*dT*dA*dA*dA*d[5mC]*dT*dG*dA*dT*kT*k[5mC]*k[5mC]) [Compound 1075431] | 74
23 | 1076071 (kT*kA*kT*dT*dA*dG*dT*dA*dA*dT*dG*d[5mC]*dA*k[5mC]*kA*kG; antisense) [Compound 1076071] | 14
24 | 1076487 (antisense kG*kT*kA*d[5mC]*dG*dA*dA*dA*d[5mC]*dG*dA*dA*dA*k[5mC]*kG*kG) [Compound 1076487] | 21

Same assay, conditions: Table 22; Yap1 mRNA as percent of untreated control; 3-10-3 cEt gapmers; single dose

Row | Substance | YAP1 (% UTC)
25 | 1075464 (antisense k[5mC]*k[5mC]*kA*d[5mC]*dT*dA*dA*dA*d[5mC]*d[5mC]*dA*d[5mC]*d[5mC]*kT*kA*kA) [Compound 1075464] | 77
26 | 1074760 (kA*k[5mC]*kA*dA*d[5mC]*d[5mC]*dA*dA*dG*dA*dA*dG*d[5mC]*kA*kG*kT; antisense) [Compound 1074760] | 11
27 | 1074824 (k[5mC]*k[5mC]*kT*dG*dA*dG*d[5mC]*dA*d[5mC]*dT*d[5mC]*dA*dT*kT*kT*k[5mC]; antisense) [Compound 1074824] | 53
28 | 1075976 (kA*kT*kT*dA*dA*dA*dA*dG*dT*d[5mC]*dG*dG*dG*k[5mC]*k[5mC]*kA; antisense) [Compound 1075976] | 92

Same assay, conditions: Table 23; Yap1 mRNA as percent of untreated control; 3-10-3 cEt gapmers; single dose

Row | Substance | YAP1 (% UTC)
29 | 1075945 (kG*kT*kA*dT*dT*dA*dG*dG*dA*dA*d[5mC]*dA*dG*kA*kT*k[5mC]; antisense) [Compound 1075945] | 11
30 | 1074409 (antisense kG*kG*kA*dT*dT*dA*dA*dA*dG*dT*dA*dT*d[5mC]*kT*kT*kG) [Compound 1074409] | 6
31 | 1074697 (antisense kA*kT*k[5mC]*dA*dA*dG*dG*dT*d[5mC]*d[5mC]*d[5mC]*d[5mC]*d[5mC]*kT*kA*kA) [Compound 1074697] | 44
32 | 1075561 (kG*kT*kA*dA*dG*dT*dA*dA*dG*dG*dG*dA*dA*k[5mC]*k[5mC]*k[5mC]; antisense) [Compound 1075561] | 32

Same assay, conditions: Table 24; Yap1 mRNA as percent of untreated control; 3-10-3 cEt gapmers targeting SEQ ID NO.: 1, and 2

Row | Substance | YAP1 (% UTC)
33 | 1075178 (antisense k[5mC]*kT*kG*dG*dA*dA*dG*dA*dA*dA*dT*dT*dA*k[5mC]*k[5mC]*k[5mC]) [Compound 1075178] | 47
34 | 1074698 (antisense kT*kA*kT*d[5mC]*dA*dA*dG*dG*dT*d[5mC]*d[5mC]*d[5mC]*d[5mC]*k[5mC]*kT*kA) [Compound 1074698] | 78

Same assay, conditions: Table 25; Yap1 mRNA as percent of untreated control; 3-10-3 cEt gapmers targeting SEQ ID NO.: 1, and 2

Row | Substance | YAP1 (% UTC)
35 | 1075083 (antisense k[5mC]*kA*kA*d[5mC]*dA*dA*d[5mC]*dA*d[5mC]*dT*d[5mC]*d[5mC]*dT*k[5mC]*kT*kT) [Compound 1075083] | 54
36 | 1074795 (k[5mC]*k[5mC]*kA*dA*dA*dT*d[5mC]*dA*dA*dT*dG*dT*dG*k[5mC]*kT*k[5mC]; antisense) [Compound 1074795] | 4
37 | 1075979 (k[5mC]*kA*kT*dA*dA*dT*d[5mC]*d[5mC]*dA*d[5mC]*dT*dA*dT*kG*k[5mC]*kA; antisense) [Compound 1075979] | 18
38 | 1074251 (antisense kT*k[5mC]*kT*dG*dA*dT*d[5mC]*dG*dA*dT*dG*dT*dG*kA*kT*kT) [Compound 1074251] | 7
39 | 1076523 (antisense kA*kT*kT*dT*dA*dT*dA*dT*d[5mC]*dA*dG*dG*dT*k[5mC]*kA*kA) [Compound 1076523] | 5

Same assay, conditions: Table 32; Yap1 mRNA, percent of untreated control; 3-10-3 cEt gapmers targeting SEQ ID NO.: 1, and 2

Row | Substance | YAP1 (% UTC)
40 | 1075282 (antisense kG*kA*kA*dA*dA*dA*dT*dG*dA*dG*d[5mC]*d[5mC]*d[5mC]*kG*kG*kT) [compound 1075282] | 103

Same assay, conditions: Table 33; Yap1 mRNA, percent of untreated control; 3-10-3 cEt gapmers targeting SEQ ID NO.: 1, and 2

Row | Substance | YAP1 (% UTC)
41 | 1076371 (antisense kT*kA*kA*dG*dA*dA*d[5mC]*dG*dA*dA*d[5mC]*d[5mC]*dT*k[5mC]*k[5mC]*kA) [compound 1076371] | 49
42 | 1074547 (kG*kA*kG*d[5mC]*dA*d[5mC]*dT*d[5mC]*d[5mC]*d[5mC]*d[5mC]*dT*dA*kG*kG*k[5mC]; antisense) [compound 1074547] | 71
43 | 1075283 (antisense k[5mC]*kG*kA*dA*dT*dA*dT*dA*dG*dA*dA*dA*dA*kA*kT*kG) [compound 1075283] | 90
44 | 1075091 (kA*kA*kA*d[5mC]*dA*dA*d[5mC]*dG*dA*dA*dT*dG*dA*kT*kT*kG; antisense) [compound 1075091] | 65

Same assay, conditions: Yap1 mRNA as percent of untreated control; A-431 cells; 3-10-3 cEt gapmers targeting SEQ ID NO.: 1, and 2; Table 30

Row | Substance | YAP1 (% UTC)
45 | 1074640 (antisense kG*k[5mC]*k[5mC]*dA*dA*dA*dA*dT*dA*d[5mC]*dT*dT*dA*kG*kA*kT) [compound 1074640] | 26
46 | 1075152 (kT*kA*kT*dA*dA*dT*dG*dG*dG*dA*dG*dG*dA*kT*kT*kA; antisense) [compound 1075152] | 99
